Test system: DOHH2 and TMD8 DLBCL cells
Assay: Gene expression profiling (HumanHT-12 v4 BeadChip, limma), ST7612AA1 300 nM 8 hrs vs DMSO
Assay type: cell-based, human
Conditions: 300 nM 8 hrs vs DMSO

In the case of `CC(=O)SCCCCC[C@H](NC(=O)[C@H]1CCC(=O)N1)C(=O)Nc1ccccc1` [ST7612AA1], the “log ratio POGK (ILMN_1756669)” value was -8.84E-01, the “log ratio POLR1C (ILMN_1746686)” value was -8.40E-01 and the “log ratio PPP1R13B (ILMN_1748831)” value was 6.43E-01. For the same compound, the “log ratio PPP2R1A (ILMN_1810467)” value was -5.99E-01, the “log ratio PPRC1 (ILMN_1796210)” value was -1.03E+00 and the “log ratio PRDM10 (ILMN_2352293)” value was -8.83E-01. The “log ratio PRDX2 (probe ILMN_1767766)” value was 8.35E-01, the “log ratio PRDX2 (probe ILMN_2382829)” value was 7.41E-01 and the “log ratio PRKAR1B (ILMN_1674390)” value was -8.76E-01. The “log ratio PRKCB1 (ILMN_1806908)” value was 6.12E-01, the “log ratio PRMT3 (ILMN_1662964)” value was -1.23E+00 and the “log ratio PSMB5 (ILMN_1744649)” value was -9.34E-01. The “log ratio PSMB10 (ILMN_1683026)” value was -8.38E-01, the “log ratio PSMG4 (ILMN_3224204)” value was -5.99E-01 and the “log ratio PTGER4 (probe ILMN_1795930)” value was 9.03E-01. For the same compound, the “log ratio PTMS (ILMN_1721046)” value was 6.73E-01, the “log ratio PTPN7 (ILMN_1715214)” value was -6.16E-01 and the “log ratio PTS (ILMN_2162328)” value was -8.08E-01. The “log ratio PTTG1 (probe ILMN_1753196)” value was 6.92E-01, the “log ratio PTTG1IP (ILMN_1802251)” value was 6.45E-01 and the “log ratio PTTG1IP (ILMN_2128750)” value was 6.16E-01. For the same compound, the “log ratio PTTG3P (ILMN_2049021)” value was 6.08E-01, the “log ratio QTRTD1 (ILMN_2155516)” value was -7.99E-01 and the “log ratio RAB8B (probe ILMN_2173004)” value was 8.71E-01. For the same compound, the “log ratio RAB11FIP2 (ILMN_2072541)” value was -5.92E-01, the “log ratio RAB11FIP5 (ILMN_1740604)” value was 6.69E-01 and the “log ratio RAB24 (probe ILMN_2379718)” value was 7.77E-01. The “log ratio RABEPK (ILMN_1741957)” value was -9.81E-01, the “log ratio RABGAP1 (probe ILMN_2061950)” value was 6.86E-01 and the “log ratio RAD9A (ILMN_1684183)” value was 6.33E-01. For the same compound, the “log ratio RAN (ILMN_1757384)” value was -8.66E-01, the “log ratio RAPGEF2 (probe ILMN_3247261)” value was 8.54E-01 and the “log ratio RASAL1 (probe ILMN_1793517)” value was 7.10E-01. The “log ratio RASD2 (probe ILMN_2170209)” value was 7.75E-01, the “log ratio RASGRP3 (ILMN_1727045)” value was -9.48E-01 and the “log ratio RASL10A (ILMN_1747673)” value was 6.25E-01. The “log ratio RASSF2 (ILMN_1709683)” value was -8.05E-01, the “log ratio RBM23 (ILMN_1780756)” value was -8.92E-01 and the “log ratio RBM23 (ILMN_2363106)” value was -9.17E-01. For the same compound, the “log ratio RBM38 (ILMN_2404049)” value was 6.27E-01, the “log ratio RCAN1 (ILMN_2367239)” value was 6.08E-01 and the “log ratio RCC2 (ILMN_1720124)” value was -8.76E-01. For the same compound, the “log ratio REEP2 (probe ILMN_1666057)” value was 6.85E-01, the “log ratio RFC1 (probe ILMN_2217935)” value was 7.23E-01 and the “log ratio RGS19 (ILMN_1677085)” value was -9.37E-01. The “log ratio RHBDD2 (probe ILMN_1809437)” value was 7.80E-01, the “log ratio RHBDD2 (probe ILMN_2406410)” value was 8.04E-01 and the “log ratio RHOBTB3 (probe ILMN_1744949)” value was 8.25E-01. For the same compound, the “log ratio RHOC (probe ILMN_1673305)” value was 9.02E-01, the “log ratio RIOK3 (ILMN_2404135)” value was 5.99E-01 and the “log ratio RNASE4 (probe ILMN_1776602)” value was 7.33E-01. The “log ratio RND2 (probe ILMN_1736533)” value was 7.06E-01, the “log ratio RNF24 (probe ILMN_1717809)” value was 7.24E-01 and the “log ratio RNF135 (ILMN_1700660)” value was -6.19E-01. For the same compound, the “log ratio RNFT2 (ILMN_3299905)” value was 6.00E-01, the “log ratio RPIA (ILMN_1714809)” value was -9.23E-01 and the “log ratio RPL29 (ILMN_1737517)” value was -1.05E+00. The “log ratio RPL29 (ILMN_1771051)” value was -1.03E+00, the “log ratio RPL36A (ILMN_2112811)” value was -6.12E-01 and the “log ratio RPP40 (ILMN_1810423)” value was -1.07E+00. For the same compound, the “log ratio RPRD2 (ILMN_3238889)” value was -7.98E-01, the “log ratio RPS6KA4 (ILMN_1756204)” value was -7.98E-01 and the “log ratio RRBP1 (ILMN_2360784)” value was 6.39E-01. The “log ratio RRS1 (ILMN_1767658)” value was -7.92E-01, the “log ratio RTN2 (probe ILMN_1749115)” value was 8.60E-01 and the “log ratio RTN3 (probe ILMN_2363065)” value was 7.08E-01. The “log ratio S100A4 (ILMN_1688780)” value was 6.50E-01, the “log ratio SALL2 (ILMN_1740842)” value was 6.64E-01 and the “log ratio SBK1 (probe ILMN_1728298)” value was 8.80E-01. For the same compound, the “log ratio SCARNA11 (probe ILMN_3236010)” value was 6.95E-01, the “log ratio SCARNA13 (probe ILMN_3235325)” value was 7.18E-01 and the “log ratio SCARNA14 (probe ILMN_3247636)” value was 7.31E-01. For the same compound, the “log ratio SCARNA23 (ILMN_3243966)” value was 6.49E-01, the “log ratio SCD5 (ILMN_2237428)” value was 6.35E-01 and the “log ratio SDCBP (probe ILMN_2363586)” value was 8.86E-01. For the same compound, the “log ratio SDCBP (probe ILMN_2363591)” value was 8.22E-01, the “log ratio SDHA (ILMN_1744210)” value was 6.20E-01 and the “log ratio SDHAP2 (probe ILMN_3248781)” value was 7.07E-01. The “log ratio SEMA4D (probe ILMN_1687533)” value was 7.86E-01, the “log ratio SEMA4F (probe ILMN_1805007)” value was 7.51E-01 and the “log ratio SENP6 (ILMN_2054233)” value was -8.91E-01. For the same compound, the “log ratio SEPHS1 (ILMN_1673369)” value was -1.31E+00, the “log ratio SEPHS1 (ILMN_2176768)” value was -1.36E+00 and the “log ratio SEPHS2 (ILMN_1687824)” value was 6.78E-01. The “log ratio SERPINB9 (probe ILMN_1742052)” value was 7.55E-01, the “log ratio SERPINI1 (probe ILMN_1814333)” value was 7.79E-01 and the “log ratio SESN1 (ILMN_1800626)” value was 5.92E-01. The “log ratio SETMAR (ILMN_1682404)” value was -7.84E-01, the “log ratio SFRS7 (ILMN_1778836)” value was -6.07E-01 and the “log ratio SFXN4 (ILMN_2363361)” value was -9.20E-01. For the same compound, the “log ratio SGK (probe ILMN_1702487)” value was 8.82E-01, the “log ratio SGSH (ILMN_2133675)” value was 5.92E-01 and the “log ratio SH3GLB2 (probe ILMN_2158336)” value was 6.85E-01. The “log ratio SLC5A6 (ILMN_1741054)” value was -9.72E-01, the “log ratio SLC7A1 (ILMN_1683859)” value was -6.20E-01 and the “log ratio SLC23A2 (probe ILMN_1746578)” value was 7.82E-01. For the same compound, the “log ratio SLC25A4 (probe ILMN_1681670)” value was 8.53E-01, the “log ratio SLC25A4 (probe ILMN_2211780)” value was 7.98E-01 and the “log ratio SLC25A13 (ILMN_1668012)” value was -8.15E-01. For the same compound, the “log ratio SLC25A23 (probe ILMN_1679949)” value was 7.04E-01, the “log ratio SLC35F2 (ILMN_2075189)” value was -9.03E-01 and the “log ratio SLC38A1 (ILMN_1769911)” value was -9.30E-01. The “log ratio SLC38A5 (ILMN_1695058)” value was -1.13E+00, the “log ratio SLC39A3 (ILMN_2234970)” value was 6.58E-01 and the “log ratio SLC39A10 (ILMN_1656129)” value was -5.93E-01. The “log ratio SLC43A3 (ILMN_1658407)” value was -9.67E-01, the “log ratio SLC43A3 (ILMN_2330307)” value was -8.92E-01 and the “log ratio SLC44A2 (probe ILMN_1771987)” value was 7.92E-01. The “log ratio SLC45A3 (probe ILMN_1726114)” value was 7.11E-01, the “log ratio SLFN11 (ILMN_2162860)” value was 6.41E-01 and the “log ratio SLFN11 (probe ILMN_1752520)” value was 7.62E-01. For the same compound, the “log ratio SLTM (ILMN_1742224)” value was -9.17E-01, the “log ratio SLTM (ILMN_2395204)” value was -8.02E-01 and the “log ratio SMG5 (ILMN_2126239)” value was -9.35E-01. For the same compound, the “log ratio SNAP23 (probe ILMN_1687519)” value was 8.74E-01, the “log ratio SNHG3-RCC1 (ILMN_1707493)” value was -9.37E-01 and the “log ratio SNORA76 (ILMN_3237562)” value was -5.92E-01. For the same compound, the “log ratio SNORA80 (ILMN_3238554)” value was 6.42E-01, the “log ratio SNORD31 (probe ILMN_2072391)” value was 7.85E-01 and the “log ratio SNORD65 (ILMN_3246353)” value was -8.36E-01. The “log ratio SNUPN (ILMN_1733932)” value was -7.98E-01, the “log ratio SNUPN (ILMN_2364535)” value was -8.42E-01 and the “log ratio SNX29 (ILMN_1659761)” value was 6.78E-01. The “log ratio SORT1 (probe ILMN_1707077)” value was 8.42E-01, the “log ratio SPAG1 (ILMN_2367681)” value was 5.96E-01 and the “log ratio SPAG7 (ILMN_1684446)” value was -8.14E-01. The “log ratio SPAG9 (ILMN_1799104)” value was 6.26E-01, the “log ratio SPAG9 (probe ILMN_2263718)” value was 7.33E-01 and the “log ratio SPI1 (ILMN_2392043)” value was -6.03E-01. For the same compound, the “log ratio SPINT2 (probe ILMN_1800739)” value was 8.11E-01, the “log ratio SPRY1 (ILMN_2329914)” value was 6.03E-01 and the “log ratio SREBF1 (probe ILMN_1663035)” value was 7.22E-01. For the same compound, the “log ratio SRGN (probe ILMN_1760347)” value was 7.62E-01, the “log ratio SRGN (probe ILMN_2169152)” value was 7.60E-01 and the “log ratio SRP72 (ILMN_1683888)” value was -5.90E-01. The “log ratio SSPN (ILMN_1775486)” value was -1.34E+00, the “log ratio STAG2 (ILMN_1782609)” value was -9.17E-01 and the “log ratio STARD10 (probe ILMN_1717052)” value was 8.01E-01. For the same compound, the “log ratio STK17B (probe ILMN_1798543)” value was 7.91E-01, the “log ratio STMN3 (probe ILMN_3244117)” value was 9.01E-01 and the “log ratio STX3 (probe ILMN_1659544)” value was 8.71E-01. The “log ratio SUMO3 (ILMN_1725642)” value was -9.81E-01, the “log ratio SUSD3 (probe ILMN_1785570)” value was 8.58E-01 and the “log ratio SYNGR1 (ILMN_1810875)” value was 6.25E-01. For the same compound, the “log ratio TACC1 (probe ILMN_1770084)” value was 7.64E-01, the “log ratio TACO1 (ILMN_1685112)” value was -6.19E-01 and the “log ratio TADA1L (ILMN_1776487)” value was -6.14E-01. The “log ratio TANK (probe ILMN_1715069)” value was 8.21E-01, the “log ratio TBC1D7 (probe ILMN_1661622)” value was 7.33E-01 and the “log ratio TBC1D16 (probe ILMN_1758457)” value was 7.24E-01.

From article PMC4467398, “Preclinical antitumor activity of ST7612AA1: a new oral thiol-based histone deacetylase (HDAC) inhibitor” (Oncotarget, 2014)
